# Patent US6563002B2, “Biscyclopropanecarboxamide compounds and pharmaceutical use thereof” (Ajinomoto Co., Inc., priority 1999, dated 2003)
# Tested on: NF-kappa B
# Assay: Evaluation of inhibition of NF-kappa B: β-gal reporter in immortalized HUVEC induced with IL-1β
# Format: cell-based
# Conditions: Homo sapiens; HUVEC with NF-kappa B-driven β-gal reporter; 1 ng/ml IL-1β added 30 minutes after compound; β-gal activity determined 16 hours after; read-out: NFkB inhibiting activity IC50
# Description: Evaluation of Inhibition of NF-Kappa B:
# Cells used in the tests were obtained by stably introducing E. coli β-galactosidase (β-gal) genes into human normal umbilical vein endothelial cells (HUVEC) immortalized with SV 40 large T antigen. The genes were those driven by SV40 minimum promoter fused with 6 times of the NF-kappa B binding motif derived, from immunoglobulin kappa light-chain enhancer. The cells were subcultured in RPMI medium containing 10% of FBS, and spread on 96-well plates in a concentration of 1×10^4/well the day before the initiation of the experiments. The compound of the present invention was dissolved in DMSO in a suitable concentration and fed into the 96-well plates so that the final concentration of DMSO would be not higher than 1%. 30 minutes after the addition of the compound, NF-kappa B activity was induced with 1 ng/ml of IL-1β in each well. The β-gal activity was determined 16 hours after. The β-gal activity was determined with a chemical photogenic substrate (Galacton-Light-Plus: Boehringer Mannheim) according to the protocol attached to the reagent.
structure (smiles),measurement,value
CC1(C)CC1C(=O)Nc1ccc(C(O)c2ccccc2)cc1NC(=O)C1CC1(C)C (stereo not shown) [Example 2],IC50,1 µg/mL
